Experimental data as given in US8178506B2, “Oligomeric compounds and compositions for use in modulation of small non-coding RNAs” (Regulus Therapeutics Inc., priority 2003, dated 2012).
In the oligonucleotide strings, read from the 5' end, every base follows the letter of its sugar. An asterisk marks phosphorothioate; unmarked linkages are phosphodiester. Other units and linkages are bracketed, terminal groups are in braces. A string of capitals states the bases alone. e = 2'-O-(2-methoxyethyl) (MOE); [5mC] = 5-methylcytosine; d = 2'-deoxy (DNA)

Tests used:
PEPCK-c = PEPCK-c mRNA expression in HepG2 cells; type: cell-based, human; settings: for PEPCKc mRNA expression: Experiment 2, insulin treated: HepG2 cells transfected with oligomeric compound, 1 nM insulin for four hours, UTC + 1 nM insulin = 100
Method: (§1) Approximately 28 hours after transfection, the cells are subjected to serum starvation for a period of 12 to 16 hours, using serum-free growth medium. Following serum starvation, cells are treated with 1 nM insulin (insulin-treated) or are left untreated (basal conditions) for approximately four hours. At the same time, untreated control cells in both plates are treated with 100 nM insulin to determine the maximal insulin response. Following insulin treatment (forty-eight hours after transfection), total RNA is harvested from all samples, and the amount of total RNA from each sample is determined using a Ribogreen assay (Invitrogen Corporation, Carlsbad, Calif.). Real-time PCR is performed on the total RNA samples using primer/probe sets for three insulin responsive genes: insulin-like growth factor binding protein-1 (IGFBP-1), cytosolic PEPCK (PEPCK-C), and follistatin. Gene expression levels obtained by real-time PCR are normalized for total RNA content in the samples.
(§2) Oligomeric compounds of the present invention were tested for their effects on insulin signaling in HepG2 cells. HepG2 cells were plated at 7500 cells/well in collagen coated 96-well plates. The following day, cells were transfected with oligomeric compounds targeting miRNAs using 100 nM oligomeric compound in LIPOFECTIN™ (Invitrogen Corporation, Carlsbad, Calif.) in two 96-well plates. The oligomeric compounds were tested in triplicate on each 96-well plate, except for positive and negative controls, which were measured up to six times per plate. At the end of transfection, the transfection medium was replaced by regular growth medium. Twenty-eight hours post-transfection, the cells were subjected to overnight (sixteen to eighteen hours) serum starvation using serum free growth medium. Forty-four hours post-transfection, the cells in the transfected wells were treated with either no insulin (“basal” Experiment 1, for identification of insulin-mimetic compounds) or with 1 nM insulin (“insulin treated” Experiment 2, for identification of insulin sensitizers) for four hours. At the same time, in both plates, cells in some of the un-transfected control wells are treated with 100 nM insulin to determine maximal insulin response. At the end of the insulin or no-insulin treatment (forty-eight hours post-transfection), total RNA is isolated from both the basal and insulin treated (1 nM) 96-well plates, and the amount of total RNA from each sample is determined using a Ribogreen assay (Molecular Probes, Eugene, Oreg.). Real-time PCR is performed on all the total RNA samples using primer/probe sets for three insulin responsive genes: PEPCK-c, IGFBP-1 and follistatin. Expression levels for each gene are normalized to total RNA, and values+standard deviation are expressed relative to the transfectant only untreated control (UTC) and negative control compounds.
(§3) Protocols for treatment of HepG2 cells and transfection of oligomeric compounds are as described in Example 18. Also as described in Example 18, forty-four hours post-transfection, the cells in the transfected wells were treated with either no insulin (“basal” Experiment 3 (below), for identification of insulin-mimetic compounds) or with 1 nM insulin (“insulin treated” Experiment 4 (below), for identification of insulin sensitizers) for four hours. At the same time, in both plates, cells in some of the un-transfected control wells are treated with 100 nM insulin to determine maximal insulin response. At the end of the insulin or no-insulin treatment (forty-eight hours post-transfection), total RNA is isolated from both the basal and insulin treated (1 nM) 96-well plates, and the amount of total RNA from each sample is determined using a Ribogreen assay (Molecular Probes, Eugene, Oreg.).

IGFBP-1 = IGFBP-1 mRNA expression in HepG2 cells; type: cell-based, human; settings: for IGFBP1 mRNA expression: Experiment 2, insulin treated: HepG2 cells transfected with oligomeric compound, 1 nM insulin for four hours, UTC + 1 nM insulin = 100
Method: as §1, §2, §3

follistatin = assay: Follistatin mRNA expression in HepG2 cells; type: cell-based, human; settings: for Follistatin mRNA expression: Experiment 2, insulin treated: HepG2 cells transfected with oligomeric compound, 1 nM insulin for four hours, UTC + 1 nM insulin = 100
Method: as §1, §2, §3

HeLa cells = assay: Cell cycle assay in HeLa cells; type: cell-based, human; settings: HeLa cells, 150 nM oligomeric compound; for % cells aneuploid / % cells in cell cycle phase G1 / % cells in cell cycle phase G2/M / % cells in cell cycle phase S / % cells in cell cycle phase subG1: 24 hours, relative to untreated control (UTC = 100); for % cells in cell cycle phase: G1 / % cells in cell cycle phase: G2/M / % cells in cell cycle phase: S / % cells in cell cycle phase: aneuploid / % cells in cell cycle phase: subG1: 48 hours after treatment, relative to untreated control (UTC=100)
T47D cells = assay: Caspase-3 activity assay (apoptosis) in T47D cells; settings: T47D cells, 48 hours
[1] = test system: BJ, B16-F10, T47D, T47Dp53 and HeLa cells; assay: Cell cycle assay (propidium iodide flow cytometry), cell line panel; type: cell-based; settings: 150 nM oligomeric compound, 4.5 μg/ml LIPOFECTIN, after 72 hours, propidium iodide flow cytometry
[2] = Experiment 3, basal (no insulin), HepG2 cells, 48 hours post-transfection
[3] = Experiment 4, insulin-sensitization: HepG2 cells treated with 1 nM insulin for four hours, 48 h post-transfection, mRNA by real-time PCR

328702 (eT*eG*eA*e[5mC]*e[5mC]*dA*d[5mC]*dA*dA*dA*dA*dT*dT*d[5mC]*d[5mC]*eT*eT*eA*e[5mC]*eA; antisense) [compound 328702]
PEPCKc mRNA expression (PEPCK-c): 96
IGFBP1 mRNA expression (IGFBP-1): 83
Follistatin mRNA expression (follistatin): 88

328769 (antisense eA*eG*eG*e[5mC]*eT*dG*dG*dA*d[5mC]*dA*dG*d[5mC]*dA*d[5mC]*dA*e[5mC]*eA*eA*e[5mC]*e[5mC]) [compound 328769]
PEPCKc mRNA expression (PEPCK-c): 100
IGFBP1 mRNA expression (IGFBP-1): 110
Follistatin mRNA expression (follistatin): 84

328644 (eG*eA*e[5mC]*eA*eA*dG*dG*dT*dG*dG*dG*dA*dG*d[5mC]*dG*eA*eG*eT*eG*eG; antisense) [compound 328644]
% cells aneuploid (HeLa cells): 68%
% cells in cell cycle phase G1 (HeLa cells): 113%
% cells in cell cycle phase G2/M (HeLa cells): 109%
% cells in cell cycle phase S (HeLa cells): 84%
% cells in cell cycle phase subG1 (HeLa cells): 71%
% cells in cell cycle phase: G1 (HeLa cells): 101%
% cells in cell cycle phase: G2/M (HeLa cells): 98%
% cells in cell cycle phase: S (HeLa cells): 101%
% cells in cell cycle phase: aneuploid (HeLa cells): 82%
% cells in cell cycle phase: subG1 (HeLa cells): 52%
Fold Increase over UTC (caspase-3 activity, apoptosis) (T47D cells; 200 nM oligomeric compound, experiment of Table 12): 0.7 fold
G1 (percentage of cells in phase of the cell cycle) [1]: 58.4%
G2/M (percentage of cells in phase of the cell cycle) [1]: 14%
S (percentage of cells in phase of the cell cycle) [1]: 27.6%
SubG1 (percentage of cells in phase of the cell cycle) [1]: 7.2%
aneuploid (percentage of cells) [1]: 17.5%

328779 (antisense eT*eG*eT*eT*eT*dG*dT*d[5mC]*dT*d[5mC]*d[5mC]*dA*dA*dG*dA*eA*eA*e[5mC]*eG*eT) [compound 328779]
PEPCK-c (% UTC) (PEPCK-c; [2]): 123 % UTC
PEPCK-c (% UTC) (PEPCK-c; [3]): 78 % UTC
IGFBP-1 (% UTC) (IGFBP-1; [2]): 135 % UTC
IGFBP-1 (% UTC) (IGFBP-1; [3]): 128 % UTC
Follistatin (% UTC) (follistatin; [2]): 109 % UTC
Follistatin (% UTC) (follistatin; [3]): 119 % UTC

328358 (eA*eG*eT*eT*eT*dG*dA*dA*dG*dT*dG*dT*d[5mC]*dA*d[5mC]*eA*eG*e[5mC]*eG*e[5mC]) [compound 328358]
PEPCKc mRNA expression (PEPCK-c): 93
IGFBP1 mRNA expression (IGFBP-1): 165
Follistatin mRNA expression (follistatin): 106

328367 (eA*e[5mC]*eT*eG*eA*dG*dG*dG*d[5mC]*dG*dG*d[5mC]*d[5mC]*d[5mC]*dG*eG*eG*e[5mC]*eA*eG) [compound 328367]
PEPCKc mRNA expression (PEPCK-c): 85
IGFBP1 mRNA expression (IGFBP-1): 141
Follistatin mRNA expression (follistatin): 107

328343 (eT*e[5mC]*eG*eA*eT*dT*dT*dA*dG*dT*dT*dA*dT*d[5mC]*dT*eA*eA*eA*eA*eA) [compound 328343]
PEPCKc mRNA expression (PEPCK-c): 69
IGFBP1 mRNA expression (IGFBP-1): 135
Follistatin mRNA expression (follistatin): 139

328764 (antisense eA*eG*eA*eT*eG*dT*dT*dT*d[5mC]*dT*dG*dG*d[5mC]*d[5mC]*dT*eG*e[5mC]*eG*eA*eG) [compound 328764]
PEPCKc mRNA expression (PEPCK-c): 68
IGFBP1 mRNA expression (IGFBP-1): 145
Follistatin mRNA expression (follistatin): 128

TCAGTTTTGCATGGATTTGCACA (anti-miR; chemistry not fully specified) [ISIS 327922, uniform 2′-MOE PS; targets mir-19b-2]
reduction of PEPCK-c mRNA expression (PEPCK-c; HepG2, 1 nM insulin, 100 nM): 24%
decrease in PEPCK-c mRNA (PEPCK-c; HepG2, basal (no insulin), 100 nM): 23%

328424 (antisense eA*eG*eG*eA*eA*dG*d[5mC]*dA*d[5mC]*dA*d[5mC]*dA*dT*dT*dA*eT*e[5mC]*eA*e[5mC]*eA) [compound 328424]
% cells aneuploid (HeLa cells): 74%
% cells in cell cycle phase G1 (HeLa cells): 110%
% cells in cell cycle phase G2/M (HeLa cells): 112%
% cells in cell cycle phase S (HeLa cells): 85%
% cells in cell cycle phase subG1 (HeLa cells): 60%
% cells in cell cycle phase: G1 (HeLa cells): 103%
% cells in cell cycle phase: G2/M (HeLa cells): 101%
% cells in cell cycle phase: S (HeLa cells): 91%
% cells in cell cycle phase: aneuploid (HeLa cells): 111%
% cells in cell cycle phase: subG1 (HeLa cells): 89%
Fold Increase over UTC (caspase activity) (T47D cells; 200 nM, relative to untreated control): 0.9
G1 (percentage of cells in phase of the cell cycle) [1]: 61.9%
G2/M (percentage of cells in phase of the cell cycle) [1]: 14.4%
S (percentage of cells in phase of the cell cycle) [1]: 23.7%
SubG1 (percentage of cells in phase of the cell cycle) [1]: 3.1%
aneuploid (percentage of cells) [1]: 16.9%
